The values below come from ChEMBL document CHEMBL5608211, “Antibody-drug conjugates for targeted cancer therapy: Recent advances in potential payloads” (Eur J Med Chem, 2024).

The subject of one series is CCRF-CEM. Put plainly: Cytotoxicity against human CCRF-CEM cells. It is filed as functional, cell-based.
Series [1] can be described thus: Apparent permeability across basolateral to apical side in human Caco-2 cells incubated for 2 hrs by HPLC-MS analysis. It is filed as ADME, cell-based. Background: Passage across Caco-2 layers is used to estimate intestinal permeability.
Another series deals with SK-OV-3. Put plainly: Cytotoxicity against human SK-OV-3 cells incubated for 96 hrs by PrestoBlue reagent based cell viability assay. It is filed as functional. As to conditions: SK-OV-3, 96 h.
In the next series the test system is BT-474. Put plainly: Antiproliferative activity against human BT-474 cells assessed as inhibition of cell growth incubated for 4 days by WST-8 assay. As to conditions: BT-474, 96 h. It is filed as functional, cell-based. A general note: Tetrazolium dyes change colour on reduction, which living cells bring about.
The next series has as its target Tubulin. Put plainly: Displacement of fluorescent Maytansine probe from tubulin (unknown origin) assessed as dissociation constant by competitive binding based fluorescence anisotropy. The class given is protein-complex assay, Homo sapiens.
The test system of series [2] is A2780. Put plainly: Cytotoxicity against human A2780 cells assessed as inhibition of cell growth incubated for 72 hrs by MTT assay. The class given is functional, cell-based. As to conditions: A2780, 72 h.
A further series has as its system KB 3-1. Put plainly: Cytotoxicity against human KB 3-1 cells assessed as inhibition of cell growth incubated for 3 days by SRB assay. It is filed as functional, cell-based. The conditions noted are these: KB 3-1, 72 h.
A further series has as its system HepG2. Put plainly: Cytotoxicity against human HepG2 cells assessed as inhibition of cell growth incubated for 72 hrs by fluorometric assay. As to conditions: HepG2, 72 h. It is filed as functional, cell-based.
Series [3] is described as follows: Cytotoxicity against human L540cy cells assessed as reduction in cell growth incubated for 4 days by CellTiter-Glo luminescent assay. It is filed as functional, cell-based. As to conditions: 96 h. On the technique in general: In ATP-based viability assays light output follows the ATP content of the culture.
Series [4] has as its system A2780. Put plainly: Cytotoxicity against human A2780 cells. The class given is functional, cell-based.
For series [5], the system named is HT-29. Put plainly: Antiproliferative activity against human HT-29 cells assessed as inhibition of cell growth incubated for 72 hrs by coulter counter method. It is filed as functional, cell-based. As to conditions: HT-29, 72 h.
The subject of series [6] is HT-29. Put plainly: Antiproliferative activity against human HT-29 cells assessed as inhibition of cell growth incubated for 48 to 96 hrs by MTT assay. It is filed as functional, cell-based.
The test system of another series is K562. Put plainly: Antiproliferative activity against human K562 cells assessed as inhibition of cell growth incubated for 5 days by WST-1 assay. The class given is functional, cell-based. As to conditions: K562, 120 h.
Series [7] can be described thus: Inhibition of RNA polymerase II phosphorylation in human HeLa cells by Western blot analysis. The class given is cell-based.
The next series relates to SK-BR-3. Put plainly: Cytotoxicity against human SK-BR-3 cells incubated for 4 to 7 days hrs by CellTiter-Glo luminescent assay. The class given is functional, cell-based.

pEC50, pIC50, pKd: −log10 of the molar value. Converted amounts (≈) assume the structure as drawn.

Broadly, the pIC50 is the IC50 on a negative log10 scale, so that one unit is a factor of ten. For the molecule `COc1ccc(C[C@H]2NC(=O)/C=C/C[C@@H]([C@H](C)[C@@H](O)[C@@H](Cl)c3ccccc3)OC(=O)[C@H](CC(C)C)OC(=O)C(C)(C)CNC2=O)cc1Cl`, in the series with CCRF-CEM, the pIC50 was 10.57.

For orientation: Papp B→A means how fast a substance crosses the layer from the basolateral side. Regarding `CC[C@H](C)[C@@H]([C@@H](CC(=O)N1CCC[C@H]1[C@H](OC)[C@@H](C)C(=O)N[C@@H](Cc1ccccc1)c1nnc(-c2ccccc2)o1)OC)N(C)C(=O)[C@@H](NC(=O)[C@H](C(C)C)N(C)CCCC(=O)O)C(C)C`, in series [1], the Papp B→A at 2 h was determined as 2.9 ×10⁻⁶ cm/s.

For the molecule `CC[C@H](C)[C@@H]([C@@H](CC(=O)N1CCC[C@H]1[C@H](OC)[C@@H](C)C(=O)N[C@@H](Cc1ccccc1)c1nccs1)OC)N(C)C(=O)[C@@H](NC(=O)[C@H](C(C)C)N(C)CC(O)C(O)C(O)C(O)CN=[N+]=[N-])C(C)C` (some centres undefined), the pIC50 with SK-OV-3 was more than 9.00.

As for `CC[C@H](C)[C@@H]([C@@H](CC(=O)N1C[C@@H](NC)C[C@H]1[C@H](OC)[C@@H](C)C(=O)NCCc1c(F)cccc1F)OC)N(C)C(=O)[C@@H](NC(=O)[C@H](C(C)C)N(C)C)C(C)C`, in the series on BT-474, the pIC50 is more than 9.40.

For the molecule `CC[C@H](C)[C@@H]([C@@H](CC(=O)N1C[C@@H](N)C[C@H]1[C@H](OC)[C@@H](C)C(=O)NCCc1c(F)cccc1F)OC)N(C)C(=O)[C@@H](NC(=O)[C@H](C(C)C)N(C)C)C(C)C`, in the series with BT-474, the negative-log IC50 (pIC50) was more than 9.40.

Broadly, the pKd is the negative decadic logarithm of the Kd, by convention in mol/L. Consider `COc1cc2cc(c1Cl)N(C)C(=O)C[C@H](OC(C)=O)[C@@]1(C)O[C@H]1[C@H](C)[C@@H]1C[C@@](O)(NC(=O)O1)[C@H](OC)/C=C/C=C(\C)C2`, for which the pKd at Tubulin was 7.96. Besides, the pIC50 with A2780 [2] is 9.60.

As for `CN[C@H](C(=O)N[C@H](C(=O)N(C)[C@H](/C=C(\C)C(=O)N1CCC[C@H]1[C@H](OC)[C@@H](C)C(=O)N[C@@H](Cc1ccccc1)c1nccs1)C(C)C)C(C)(C)C)C(C)(C)c1ccccc1`, the pIC50 in the series with KB 3-1 is 9.12.

Regarding `CC[C@H](C)[C@@H]([C@@H](CC(=O)N1C[C@@H](NC(=O)OC(C)(C)C)C[C@H]1[C@H](OC)[C@@H](C)C(=O)NCCc1c(F)cccc1F)OC)N(C)C(=O)[C@@H](NC(=O)[C@H](C(C)C)N(C)C)C(C)C`, in the series on HepG2, the pIC50 was 9.89.

The pEC50 is the negative decadic logarithm of the EC50, by convention in mol/L. Regarding `Nc1cccc(C(=O)N2CCC(CCCCNC(=O)/C=C/c3cccnc3)CC2)c1`, the pEC50 in series [3] was 8.20.

`CC(=O)N[C@@H](C)c1ccc(NC(=O)[C@H]2C[C@@H]2c2cccnc2)cc1` gave a pIC50 in the series with A2780 [4] of 8.30.

`CC[C@H](C)[C@H](NC(=O)[C@H]1CCCCN1C)C(=O)N(CC1CC1)[C@H](C[C@@H](OC(C)=O)c1nc(C(=O)N[C@@H](Cc2ccccc2)C[C@H](C)C(=O)O)cs1)C(C)C`: in the series with HT-29 [5], the pIC50 was 10.26.

In the case of `CC[C@H](C)[C@@H]([C@@H](CC(=O)N1CCC[C@H]1[C@H](OC)[C@@H](C)C(=O)N[C@H](Cc1ccccc1)c1nnc(-c2ccccc2)o1)OC)N(C)C(=O)[C@@H](NC(=O)[C@H](C(C)C)N(C)CCCC(=O)O)C(C)C`, the pIC50 in the series with HT-29 [6] was 10.00. Further, the Papp B→A at 2 h in series [1] was found to be 4.5 ×10⁻⁶ cm/s.

By IC50 is commonly meant the concentration at which inhibition is half-maximal. As to `CC[C@H](C)[C@H](NC(=O)[C@H]1CCCCN1C)C(=O)N(COC(=O)CC(C)C)[C@H](C[C@@H](OC(C)=O)c1nc(C(=O)N[C@H](Cc2ccccc2)C[C@H](C)C(=O)O)cs1)C(C)C`, the IC50 with K562 was determined as 0.02 ng/mL (≈ 0.0242 nM).

Turning to `C#CCCCCC(=O)O[C@H]1CC(=O)N(C)c2cc(cc(OC)c2Cl)C/C(C)=C/C=C/[C@@H](OC)[C@@]2(O)C[C@H](OC(=O)N2)[C@@H](C)[C@@H]2O[C@]12C`, the pKd on Tubulin is 7.70. For the same molecule, in the series on A2780 [2], the pIC50 is 10.48.

Take `CC[C@H](C)[C@@H]1NC(=O)CNC(=O)[C@H]2CC(=O)[C@H]([C@@H](C)[C@@H](O)CO)NC(=O)[C@@H]3C[C@@H](C#N)CN3C(=O)[C@H](CC(N)=O)NC(=O)[C@H](CSc3[nH]c4cc(O)ccc4c3C2)NC(=O)CNC1=O`: the pIC50 in series [7] was 6.32.

`CCCO[C@H](C[C@H](C(C)C)N(C)C(=O)[C@@H](NC(=O)[C@H]1CCCCN1C)C(C)C)c1nc(C(=O)N[C@@H](Cc2ccc(N)cc2)C[C@H](C)C(=O)O)c(CCOCc2ccccc2)s1` gave a pIC50 in the series with SK-BR-3 of 10.40.
